The target of this assay is T1, Met kinase domain (GST fusion protein) (Homo sapiens, UniProt P08581).
T1 construct: Purified GST fusion protein containing the Met kinase domain
The assay is described as follows: Met transphosphorylation assay (ELISA, poly(glu-tyr) substrate).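 Further: Cell-free ELISA with plate-bound poly(Glu:Tyr 4:1) phosphorylated by GST-fused Met kinase domain plus ATP and Mn2+, phosphotyrosine detected by anti-phosphotyrosine antibody with HRP and ABTS read-out.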 Particulars: read-out: Met IC50. The class given is biochemical. On the technique in general: ELISA stands for enzyme-linked immunosorbent assay.

Where [1] appears, read: plain numbers in column Met IC50 (μM) of Table 2.

Values joined by “and” are separate entries in the source; they are usually repeats but may differ in a detail not shown here. Equal entries are not always repeated. Where two headings read alike, the source gives them in different places.

T1 sequence (P08581 1078-1345 limits assumed): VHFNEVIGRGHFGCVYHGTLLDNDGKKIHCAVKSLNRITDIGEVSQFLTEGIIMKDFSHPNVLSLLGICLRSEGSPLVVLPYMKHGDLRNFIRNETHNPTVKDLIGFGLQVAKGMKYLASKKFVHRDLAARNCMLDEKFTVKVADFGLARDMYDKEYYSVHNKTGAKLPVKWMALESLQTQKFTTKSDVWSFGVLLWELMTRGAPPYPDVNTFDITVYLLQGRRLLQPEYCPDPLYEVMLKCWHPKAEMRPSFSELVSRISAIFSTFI

What is called IC50 is the concentration needed to halve the response being measured. For the compound `CN1CCN(C(=O)c2ccc(-c3cnc(N)c(OCc4c(F)ccc(F)c4Cl)n3)cc2)CC1` [II-46, {4-[5-Amino-6-(2-chloro-3,6-difluoro-benzyloxy)-pyrazin-2-yl]-phenyl}-(4-methyl-piperazin-1-yl)-methanone], the IC50 was determined as 0.68 µM.

On to `C[C@@H](Oc1cc(-c2ccc(NS(C)(=O)=O)cc2)cnc1N)c1c(F)ccc(F)c1Cl` [Example I-368, N-(4-{6-Amino-5-[(R)-1-(2-chloro-3,6-difluoro-phenyl)-ethoxy]-pyridin-3-yl}-phenyl)-methanesulfonamide], for which the IC50 under setting [1] is 0.066 µM.

With `Nc1ncc(-c2ccc3[nH]ccc3c2)cc1OCc1c(Cl)cccc1Cl` [Example I-58, 3-(2,6-Dichloro-benzyloxy)-5-(1H-indol-5-yl)-pyridin-2-ylamine], the 50% inhibitory concentration (IC50) came out at 4.3 µM.

Consider `CC(Oc1nc(-c2cccc(C(=O)N3CCC(N4CCCC4)CC3)c2)cnc1N)c1c(Cl)ccc(F)c1Cl` (centres unmarked) [II-92, (3-{5-Amino-6-[1-(2,6-dichloro-3-fluoro-phenyl)-ethoxy]-pyrazin-2-yl}-phenyl)-(4-pyrrolidin-1-yl-piperidin-1-yl)-methanone], for which the concentration for half-maximal inhibition (IC50) worked out at 0.15 µM.

Regarding `CC(Oc1cc(-c2cccc(C(=O)N3CCN(C)CC3)c2)cnc1N)c1c(F)ccc(F)c1Cl` (centres unmarked) [Example I-346, (3-{6-Amino-5-[1-(2-chloro-3,6-difluoro-phenyl)-ethoxy]-pyridin-3-yl}-phenyl)-(4-methyl-piperazin-1-yl)-pnl methanone], the half-inhibitory concentration (IC50) (Table 2) came out at 0.19 µM.

Take `Nc1ncc(-c2ccccc2)cc1OCc1cc(F)c(Cl)cc1Cl` [Example I-93, 3-(2,4-Dichloro-5-fluoro-benzyloxy)-5-phenyl-pyridin-2-ylamine]: the half-maximal inhibitory concentration (IC50) was over 20 µM.

For `CC(Oc1nc(-c2cncc(C(=O)NCCN3CCOCC3)c2)cnc1N)c1c(Cl)ccc(F)c1Cl` (centres unmarked) [II-208, 5-{5-Amino-6-[1-(2,6-dichloro-3-fluoro-phenyl)-ethoxy]-pyrazin-2-yl}-N-(2-morpholin-4-yl-ethyl)-nicotinamide], the half-maximal inhibitory concentration (IC50) was 0.038 µM.

Take `CC(Oc1nc(Br)cnc1N)c1c(Cl)ccc(F)c1Cl` (centres unmarked) [II(e), 5-Bromo-3-[1-(2,6-dichloro-3-fluoro-phenyl)-ethoxy]-pyrazin-2-ylamine]: the IC50 is 0.24 µM and 0.66 µM and 1.3 µM.

Regarding `CC(=O)N1CCN(CCNC(=O)c2ccc(-c3cnc(N)c(OC(C)c4c(Cl)cccc4Cl)c3)cc2)CC1` (centres unmarked) [Example I-405, N-[2-(4-Acetyl-piperazin-1-yl)-ethyl]-4-{6-amino-5-[1-(2,6-dichloro-phenyl)-ethoxy]-pyridin-3-yl}-benzamide], the half-maximal inhibitory concentration (IC50) under setting [1] came to 0.062 µM.

Regarding `Nc1ncc(-c2ccc3[nH]cc(CN4CCCCC4)c3c2)cc1OCc1c(Cl)cccc1Cl` [Example I-62, 3-(2,6-Dichloro-benzyloxy)-5-(3-piperidin-1-ylmethyl-1H-indol-5-yl)-pyridin-2-ylamine], the half-inhibitory concentration (IC50) was 1.41 µM.

For the compound `CN(C)CCS(=O)(=O)Nc1ccc(-c2cnc(N)c(OCc3c(F)ccc(F)c3Cl)c2)cc1` [Example I-249, 2-Dimethylamino-ethanesulfonic acid {4-[6-amino-5-(2-chloro-3,6-difluoro-benzyloxy)-pyridin-3-yl]-phenyl}-amide], the 50% inhibitory concentration (IC50) (Table 2) was determined as 0.098 µM.

As for `Nc1ncc(-c2ccc(C(F)(F)F)cc2)cc1OCc1c(Cl)cccc1Cl` [Example I-25], the IC50 is over 20 µM.

On to `Nc1ncc(-c2cccc(NS(=O)(=O)CCN3CCN(C(=O)CO)CC3)c2)cc1OCc1c(F)ccc(F)c1Cl` [Example I-263, 2-[4-(2-Hydroxy-acetyl)-piperazin-1-yl]-ethanesulfonic acid {3-[6-amino-5-(2-chloro-3,6-difluoro-benzyloxy)-pyridin-3-yl]-phenyl}-amide], for which the half-maximal inhibitory concentration (IC50) (Table 2) was determined as 1.14 µM.

In the case of `Nc1ncc(-c2ccc3[nH]cc(CN4CCCCC4)c3c2)cc1OCc1c(F)ccc(F)c1Cl` [Example I-73, 3-(2-Chloro-3,6-difluoro-benzyloxy)-5-(3-piperidin-1-ylmethyl-1H-indol-5-yl)-pyridin-2-ylamine], the IC50 came out at 0.74 µM.

For `CC(Oc1nc(-c2ccc(OCCN3CCOCC3)cc2)cnc1N)c1c(F)ccc(F)c1Cl` (centres unmarked) [II-70], the IC50 was determined as 0.51 µM.

For the compound `CC(Oc1cc(-c2cccc(C(=O)N3CCC[C@H]3CN3CCCC3)c2)cnc1N)c1c(Cl)ccc(F)c1Cl` (stereo partly drawn) [Example I-314, (3-{6-Amino-5-[1-(2,6-dichloro-3-fluoro-phenyl)-ethoxy]-pyridin-3-yl}-phenyl)-((S)-2-pyrrolidin-1-ylmethyl-pyrrolidin-1-yl)-methanone], the IC50 (Table 2) stood at 0.06 µM.

On to `CC(=O)N1CCN(CCNC(=O)c2cccc(-c3cnc(N)c(OC(C)c4c(Cl)ccc(F)c4Cl)n3)c2)CC1` (centres unmarked) [II-87, N-[2-(4-Acetyl-piperazin-1-yl)-ethyl]-3-{5-amino-6-[1-(2,6-dichloro-3-fluoro-phenyl)-ethoxy]-pyrazin-2-yl}-benzamide], for which the IC50 was 0.186 µM.

As to `Nc1ncc(-c2ccc3[nH]c(C(=O)N4CCC[C@@H]4CN4CCCC4)cc3c2)cc1OCc1c(Cl)cccc1Cl` [Example I-80, {5-[6-Amino-5-(2,6-dichloro-benzyloxy)-pyridin-3-yl]-1H-indol-2-yl}-[(2R)-2-pyrrolidin-1-ylmethyl-pyrrolidin-1-yl]-methanone], the half-inhibitory concentration (IC50) stood at 0.079 µM.

As for `Nc1ncc(-c2ccc(C(=O)NCCCN3CCOCC3)cc2)cc1OCc1ccc(F)cc1Cl` [Example I-210, 4-[6-Amino-5-(2-chloro-4-fluoro-benzyloxy)-pyridin-3-yl]-N-(3-morpholin-4-yl-propyl)-benzamide], for the setting “Table 2”, the IC50 stood at 5.8 µM.

`Nc1ncc(-c2ccc(C(=O)N3CCC[C@H]3CN3CCCC3)cc2)nc1OCc1cccc(F)c1C(F)(F)F` [II-129, {4-[5-Amino-6-(3-fluoro-2-trifluoromethyl-benzyloxy)-pyrazin-2-yl]-phenyl}-((S)-2-pyrrolidin-1-ylmethyl-pyrrolidin-1-yl)-methanone]: the half-inhibitory concentration (IC50) worked out at 0.052 µM.

As for `CC(Oc1nc(-c2ccc(C(=O)O)cc2)cnc1N)c1c(Cl)ccc(F)c1Cl` (centres unmarked) [II-145, 4-{5-Amino-6-[1-(2,6-dichloro-3-fluoro-phenyl)-ethoxy)-pyrazin-2-yl)benzoic acid], the IC50 was determined as 1.56 µM.

As to `Nc1ncc(-c2ccccn2)cc1OCc1ccccc1` [Example I-488, 5′-Benzyloxy-[2,3′]bipyridinyl-6′-ylamine], the IC50 under setting [1] was over 20 µM.

For `CC(Oc1nc(-c2ccc(NC(=O)NCCN3CCOCC3)cc2)cnc1N)c1c(F)ccc(F)c1Cl` (centres unmarked) [II-182, 1-(4-{5-Amino-6-[1-(2-chloro-3,6-difluoro-phenyl)-ethoxy]-pyrazin-2-yl}-phenyl)-3-(2-morpholin-4-yl-ethyl)-urea], the IC50 came to 0.18 µM.

`CC(Oc1nc(-c2ccc(NC(=O)N3CCC[C@@H]3CN3CCCC3)cc2)cnc1N)c1c(F)ccc(F)c1Cl` (stereo partly drawn) [II-183, (R)-2-Pyrrolidin-1-ylmethyl-pyrrolidin-1-carboxylic acid (4-{5-amino-6-[1-(2-chloro-3,6-difluoro-phenyl)-ethoxy]-pyrazin-2-yl}-phenyl)-amide]: the IC50 was found to be 0.21 µM.

Regarding `Nc1ncc(-c2ccc3c(c2)OCO3)cc1OCc1c(Cl)cccc1Cl` [Example I-28, 5-Benzo[1,3]dioxol-5-yl-3-(2,6-dichloro-benzyloxy)-pyridin-2-ylamine], the IC50 was determined as 8.5 µM.

For `Nc1ncc(-c2ccc(N3CCCS3(=O)=O)cc2)cc1OCc1c(F)cccc1C(F)(F)F` [Example I-242, 5-[4-(1,1-Dioxo-1λ^6-isothiazolidin-2-yl)-phenyl]-3-(2-fluoro-6-trifluoromethyl-benzyloxy)-pyridin-2-ylamine], the IC50 (Table 2) amounted to 0.14 µM.

As to `Nc1ncc(-c2cccc(NS(=O)(=O)CCN3CCCCC3)c2)nc1OCc1c(F)ccc(F)c1Cl` [II-24, 2-Piperidin-1-yl-ethanesulfonic acid {3-[5-amino-6-(2-chloro-3,6-difluoro-benzyloxy)-pyrazin-2-yl]-phenyl}-amide], the IC50 was found to be 3.5 µM.

Turning to `Nc1ncc(-c2cccc(NS(=O)(=O)CCN3CCCC3CO)c2)nc1OCc1c(F)ccc(F)c1Cl` (centres unmarked), the IC50 was determined as 1.38 µM.

Regarding `Nc1ncc(-c2cccc(NS(=O)(=O)CCN3CCOCC3)c2)nc1OCc1c(F)ccc(F)c1Cl` [II-26, 2-Morpholin-4-yl-ethanesulfonic acid {3-[5-amino-6-(2-chloro-3,6-difluoro-benzyloxy)-pyrazin-2-yl]-phenyl}-amide], the IC50 stood at 3.3 µM.

For the compound `Nc1ncc(-c2ccc(C(=O)N3CCC[C@@H]3CN3CCCC3)cc2)cc1OCc1cccc(F)c1C(F)(F)F` [Example I-116, {4-(6-Amino-5-(3-fluoro-2-trifluoromethyl-benzyloxy)-pyridin-3-yl]-phenyl}-[(2R)-2-pyrrolidin-1-ylmethyl-pyrrolidin-1-yl]-methanone], the IC50 stood at 0.025 µM.

For the compound `CC(Oc1nc(-c2cccc(C(=O)N3CCC(NC4CC4)CC3)c2)cnc1N)c1c(Cl)ccc(F)c1Cl` (centres unmarked) [II-136, (3-{5-Amino-6-[1-(2,6-dichloro-3-fluoro-phenyl)-ethoxy]-pyrazin-2-yl}-phenyl)-(4-cyclopropylamino-piperidin-1-yl)-methanone], the IC50 turned out to be 0.15 µM.

As for `CN(C)[C@H]1CCN(C(=O)c2ccc(-c3cnc(N)c(OCc4c(F)ccc(F)c4Cl)n3)cc2)C1` [II-39, {4-[5-Amino-8-(2-chloro-3,6-difluoro-benzyloxy)-pyrazin-2-yl]-phenyl}-[(3S)-3-dimethylamino-pyrrolidin-1-yl]-methanone], the IC50 is 0.67 µM.

Consider `CC(Oc1nc(-c2cccc(C(=O)O)c2)cnc1N)c1c(Cl)ccc(F)c1Cl` (centres unmarked) [II-83, 3-{5-amino-6-[1-(2,6-dichloro-3-fluoro-phenyl)-ethoxy]-pyrazin-2-yl}benzoic acid], for which the IC50 worked out at 1.36 µM.

On to `CC(Oc1cc(-c2cccnc2)cnc1N)c1c(F)ccc(F)c1Cl` (centres unmarked) [Example I-525, 5-[1-(2-Chloro-3,6-difluoro-phenyl)-ethoxy]-[3,3′]bipyridinyl-6-ylamine], for which, under setting [1], the 50% inhibitory concentration (IC50) stood at 0.0777 µM.

Take `CCN(CC)CCS(=O)(=O)Nc1ccc(-c2cnc(N)c(OCc3c(F)ccc(F)c3Cl)c2)cc1` [Example I-243, 2-diethylamino-ethanesulfonic acid {4-[6-amino-5-(2-chloro-3,6-difluoro-benzyloxy)-pyridin-3-yl]-phenyl)amide]: the 50% inhibitory concentration (IC50) (Table 2) was 0.043 µM.
